Our source for the DC50 and IC50 values is patent publication US20240246977A1, “DEGRADATION OF BRUTON'S TYROSINE KINASE (BTK) BY CONJUGATION OF BTK INHIBITORS WITH E3 LIGASE LIGAND AND METHOD OF USE” (BeiGene Switzerland GmbH, priority 2021, published 2024).

One experiment addresses BTK (Homo sapiens, UniProt Q06187). The experiment is described as follows: BTK cell degradation in TMD-8 cells, HTRF assay. Type of experiment: cell-based. Also on record: endogenous in cells; host or cells: TMD-8 cells. The settings on record: 6 h treatment, IC50 (DC50) of BTK degradation. Summed up:
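TMD-8 cells treated 6 h with 8-dose series (6-fold dilutions, 0.2% DMSO final), then lysed and BTK quantified by HTRF (337/665/620 nm) after overnight antibody incubation at room temperature. Degradation normalized to DMSO high and low controls; DC50 and Dmax from four-parameter fit.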

Another experiment deals with HEK-293 cells. Kind of experiment: HEK-293 cytotoxicity detection (CellTiter-Glo). The following applies: Homo sapiens, 72 h, 72 h incubation, CellTiter-Glo luminescence, read-out: HEK293. Type of experiment: cell-based. The essentials:
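HEK-293 cells exposed 72 h to 8 compounds doses (4-fold dilutions, top stock 5 mM at 500×) in 0.2% DMSO. Viability by CellTiter-Glo luminescence; inhibition normalised to DMSO high control and low control, IC50 from four-parameter curve fit.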

Sequence of BTK (Q06187 whole entry): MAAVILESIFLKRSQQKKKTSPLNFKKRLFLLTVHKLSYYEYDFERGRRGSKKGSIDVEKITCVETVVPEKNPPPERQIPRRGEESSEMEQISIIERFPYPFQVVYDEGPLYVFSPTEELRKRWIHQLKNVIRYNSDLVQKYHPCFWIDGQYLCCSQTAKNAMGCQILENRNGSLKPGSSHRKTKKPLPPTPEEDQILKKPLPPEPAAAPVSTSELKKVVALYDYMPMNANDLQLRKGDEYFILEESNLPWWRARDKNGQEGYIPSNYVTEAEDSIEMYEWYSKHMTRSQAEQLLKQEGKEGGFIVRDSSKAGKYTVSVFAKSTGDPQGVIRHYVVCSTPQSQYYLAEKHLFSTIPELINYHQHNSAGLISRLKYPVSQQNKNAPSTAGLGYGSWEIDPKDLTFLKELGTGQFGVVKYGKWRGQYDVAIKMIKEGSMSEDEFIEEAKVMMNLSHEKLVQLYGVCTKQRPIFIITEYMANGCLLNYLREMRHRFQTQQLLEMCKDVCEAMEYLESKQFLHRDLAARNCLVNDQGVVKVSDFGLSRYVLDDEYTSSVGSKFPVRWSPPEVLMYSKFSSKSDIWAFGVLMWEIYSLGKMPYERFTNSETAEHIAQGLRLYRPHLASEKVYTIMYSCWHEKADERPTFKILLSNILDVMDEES

With `Cc1c(C(=O)Nc2cc(C(F)(F)F)ccn2)ccc(-c2nn3c(c2C(N)=O)Nc2ccc(N4CCN(CC5CCN(c6ccc(N7CCC(=O)NC7=O)cc6)CC5)CC4)cc2CC3)c1F` [Example B15, 7-(4-((1-(4-(2,4-dioxotetrahydropyrimidin-1(2H)-yl)phenyl)piperidin-4-yl)methyl)piperazin-1-yl)-2-(2-fluoro-3-methyl-4-((4-(trifluoromethyl)pyridin-2-yl)carbamoyl)phenyl)-9,10-dihydro-4H-benzo[d]pyrazolo[1,5-a][1,3]diazepine-3-carboxamide], on BTK, it took 1.13 nM to reach half-maximal degradation (DC50). In the experiment with HEK-293 cells, the IC50 is 185 nM.

Turning to `NC(=O)c1c(-c2ccc(C(=O)Nc3cccc(C(F)(F)F)n3)cc2)nn2c1Nc1ccc(N3CCN(CC4CCN(c5ccc(N6CCC(=O)NC6=O)cc5)CC4)CC3)cc1CC2` [Example B16, 7-(4-((1-(4-(2,4-dioxotetrahydropyrimidin-1(2H)-yl)phenyl)piperidin-4-yl)methyl)piperazin-1-yl)-2-(4-((6-(trifluoromethyl)pyridin-2-yl)carbamoyl)phenyl)-9,10-dihydro-4H-benzo[d]pyrazolo[1,5-a][1,3]diazepine-3-carboxamide], on BTK, the DC50 was found to be 1.32 nM. Also, the IC50 in the experiment on HEK-293 cells amounted to 232 nM.

As to `NC(=O)c1c(-c2ccc(C(=O)Nc3ccc(C(F)(F)F)cn3)cc2)nn2c1Nc1ccc(N3CCN(CC4CCN(c5ccc(N6CCC(=O)NC6=O)cc5)CC4)CC3)cc1CC2` [Example B17, 7-(4-((1-(4-(2,4-dioxotetrahydropyrimidin-1(2H)-yl)phenyl)piperidin-4-yl)methyl)piperazin-1-yl)-2-(4-((5-(trifluoromethyl)pyridin-2-yl)carbamoyl)phenyl)-9,10-dihydro-4H-benzo[d]pyrazolo[1,5-a][1,3]diazepine-3-carboxamide], half-maximal degradation at BTK (DC50) was put at 2.19 nM. The IC50 in the experiment on HEK-293 cells is more than 10000 nM.

On to `NC(=O)c1c(-c2ccc(C(=O)Nc3cc(C(F)F)ccn3)cc2)nn2c1Nc1ccc(N3CCN(CC4CCN(c5ccc(N6CCC(=O)NC6=O)cc5)CC4)CC3)cc1CC2` [Example B18, 2-(4-((4-(difluoromethyl)pyridin-2-yl)carbamoyl)phenyl)-7-(4-((1-(4-(2,4-dioxotetrahydropyrimidin-1(2H)-yl)phenyl)piperidin-4-yl)methyl)piperazin-1-yl)-9,10-dihydro-4H-benzo[d]pyrazolo[1,5-a][1,3]diazepine-3-carboxamide], for which the DC50 at BTK was determined as 0.378 nM. Also, the IC50 in the experiment on HEK-293 cells was more than 10000 nM.

Consider `Cc1cccc(NC(=O)c2ccc(-c3nn4c(c3C(N)=O)Nc3ccc(N5CCN(CC6CCN(c7ccc(N8CCC(=O)NC8=O)cc7)CC6)CC5)cc3CC4)cc2)n1` [Example B19, 7-(4-((1-(4-(2,4-dioxotetrahydropyrimidin-1(2H)-yl)phenyl)piperidin-4-yl)methyl)piperazin-1-yl)-2-(4-((6-methylpyridin-2-yl)carbamoyl)phenyl)-9,10-dihydro-4H-benzo[d]pyrazolo[1,5-a][1,3]diazepine-3-carboxamide], for which, on BTK, the DC50 came to 0.284 nM. The IC50 in the experiment with HEK-293 cells was more than 10000 nM.

At BTK, `Cc1cccc(NC(=O)c2ccc(-c3nn4c(c3C(N)=O)Nc3ccc(N5CCN(CC6CCN(c7ccc(N8CCC(=O)NC8=O)cc7)CC6)CC5)cc3CC4)c(Cl)c2)n1` [Example B20, 2-(2-chloro-4-((6-methylpyridin-2-yl)carbamoyl)phenyl)-7-(4-((1-(4-(2,4-dioxotetrahydropyrimidin-1(2H)-yl)phenyl)piperidin-4-yl)methyl)piperazin-1-yl)-9,10-dihydro-4H-benzo[d]pyrazolo[1,5-a][1,3]diazepine-3-carboxamide] yielded a DC50 of 0.469 nM. In addition, the IC50 in the experiment with HEK-293 cells is more than 10000 nM.

`Cc1cccc(NC(=O)c2ccc(-c3nn4c(c3C(N)=O)Nc3ccc(N5CCN(CC6CCN(c7ccc(N8CCC(=O)NC8=O)cc7)CC6)CC5)cc3CC4)cc2C)n1` [Example B21, 7-(4-((1-(4-(2,4-dioxotetrahydropyrimidin-1(2H)-yl)phenyl)piperidin-4-yl)methyl)piperazin-1-yl)-2-(3-methyl-4-((6-methylpyridin-2-yl)carbamoyl)phenyl)-9,10-dihydro-4H-benzo[d]pyrazolo[1,5-a][1,3]diazepine-3-carboxamide] yielded a DC50 on BTK of 0.602 nM. Moreover, the IC50 in the experiment with HEK-293 cells is more than 10000 nM.

`COc1cc(C(=O)Nc2cccc(C)n2)ccc1-c1nn2c(c1C(N)=O)Nc1ccc(N3CCN(CC4CCN(c5ccc(N6CCC(=O)NC6=O)cc5)CC4)CC3)cc1CC2` [Example B22, 7-(4-((1-(4-(2,4-dioxotetrahydropyrimidin-1(2H)-yl)phenyl)piperidin-4-yl)methyl)piperazin-1-yl)-2-(2-methoxy-4-((6-methylpyridin-2-yl)carbamoyl)phenyl)-9,10-dihydro-4H-benzo[d]pyrazolo[1,5-a][1,3]diazepine-3-carboxamide]: the DC50 at BTK is 0.338 nM. Also, the IC50 in the experiment on HEK-293 cells is more than 10000 nM.

In turn, `Cc1cc(C)nc(NC(=O)c2ccc(-c3nn4c(c3C(N)=O)Nc3ccc(N5CCN(CC6CCN(c7ccc(N8CCC(=O)NC8=O)cc7)CC6)CC5)cc3CC4)cc2C)c1` [Example B23, 2-(4-((4,6-dimethylpyridin-2-yl)carbamoyl)-3-methylphenyl)-7-(4-((1-(4-(2,4-dioxotetrahydropyrimidin-1(2H1)-yl)phenyl)piperidin-4-yl)methyl)piperazin-1-yl)-9,10-dihydro-4H-benzo[d]pyrazolo[1,5a][1,3]diazepine-3-carboxamide] gave a DC50 at BTK of 0.594 nM. The IC50 with HEK-293 cells is more than 10000 nM.

The compound `NC(=O)c1c(-c2ccc(C(=O)Nc3cc(C(F)(F)F)ccn3)cc2Cl)nn2c1Nc1ccc(N3CCN(CC4CCN(c5ccc(N6CCC(=O)NC6=O)cc5)CC4)CC3)cc1CC2` [Example B24, 2-(2-chloro-4-((4-(trifluoromethyl)pyridin-2-yl)carbamoyl)phenyl)-7-(4-((1-(4-(2,4-dioxotetrahydropyrimidin-1(2H)-yl)phenyl)piperidin-4-yl)methyl)piperazin-1-yl)-9,10-dihydro-4-benzo[d]pyrazolo[1,5-a][1,3]diazepine-3-carboxamide] yielded a DC50 at BTK of 1.51 nM. Further, the IC50 in the experiment on HEK-293 cells was more than 10000 nM.

For the compound `Cc1cccc(NC(=O)c2ccc(-c3nn4c(c3C(N)=O)Nc3ccc(N5CCN(CC6CCN(c7ccc(N8CCC(=O)NC8=O)cc7)CC6)CC5)cc3CC4)cc2Cl)n1` [Example B25, 2-(3-chloro-4-((6-methylpyridin-2-yl)carbamoyl)phenyl)-7-(4-((1-(4-(2,4-dioxotetrahydropyrimidin-1(2H)-yl)phenyl)piperidin-4-yl)methyl)piperazin-1-yl)-9,10-dihydro-4H-benzo[d]pyrazolo[1,5-a][1,3]diazepine-3-carboxamide], it took 0.415 nM to reach half-maximal degradation on BTK (DC50). For the same compound, in the experiment on HEK-293 cells, the IC50 is more than 10000 nM.

In the case of `NC(=O)c1c(-c2ccc(C(=O)Nc3cc(C(F)(F)F)ccn3)c(Cl)c2)nn2c1Nc1ccc(N3CCN(CC4CCN(c5ccc(N6CCC(=O)NC6=O)cc5)CC4)CC3)cc1CC2` [Example B26, 2-(3-chloro-4-((4-(trifluoromethyl)pyridin-2-yl)carbamoyl)phenyl)-7-(4-((1-(4-(2,4-dioxotetrahydropyrimidin-1(2H)-yl)phenyl)piperidin-4-yl)methyl)piperazin-1-yl)-9,10-dihydro-4H-benzo[d]pyrazolo[1,5-a][1,3]diazepine-3-carboxamide], the DC50 on BTK turned out to be 0.928 nM. Besides, the IC50 in the experiment on HEK-293 cells was more than 10000 nM.

Compound `COc1cc(C(=O)Nc2cc(C(F)(F)F)ccn2)ccc1-c1nn2c(c1C(N)=O)Nc1ccc(N3CCN(CC4CCN(c5ccc(N6CCC(=O)NC6=O)cc5)CC4)CC3)cc1CC2` [Example B27, 7-(4-((1-(4-(2,4-dioxotetrahydropyrimidin-1(2H)-yl)phenyl)piperidin-4-yl)methyl)piperazin-1-yl)-2-(2-methoxy-4-((4-(trifluoromethyl)pyridin-2-yl)carbamoyl)phenyl)-9,10-dihydro-4H-benzo[d]pyrazolo[1,5-a][1,3]diazepine-3-carboxamide] had a DC50 on BTK of 0.849 nM. Moreover, the IC50 in the experiment on HEK-293 cells was more than 10000 nM.

As for `Cc1cccc(NC(=O)c2ccc(-c3nn4c(c3C(N)=O)Nc3ccc(N5CCN(CC6CCN(c7ccc(N8CCC(=O)NC8=O)cc7)CC6)CC5)cc3CC4)c(F)c2C)n1` [Example B28, 7-(4-((1-(4-(2,4-dioxotetrahydropyrimidin-1(2H)-yl)phenyl)piperidin-4-yl)methyl)piperazin-1-yl)-2-(2-fluoro-3-methyl-4-((6-methylpyridin-2-yl)carbamoyl)phenyl)-9,10-dihydro-4H-benzo[d]pyrazolo[1,5-a][1,3]diazepine-3-carboxamide], half-maximal degradation on BTK (DC50) was put at 0.726 nM. For the same compound, the IC50 with HEK-293 cells is more than 10000 nM.

Take `Cc1cc(C(F)(F)F)cc(NC(=O)c2ccc(-c3nn4c(c3C(N)=O)Nc3ccc(N5CCN(CC6CCN(c7ccc(N8CCC(=O)NC8=O)cc7)CC6)CC5)cc3CC4)c(F)c2C)n1` [Example B29, 7-(4-((1-(4-(2,4-dioxotetrahydropyrimidin-1(2H)-yl)phenyl)piperidin-4-yl)methyl)piperazin-1-yl)-2-(2-fluoro-3-methyl-4-((6-methyl-4-(trifluoromethyl)pyridin-2-yl)carbamoyl)phenyl)-9,10-dihydro-4H-benzo[d]pyrazolo[1,5-a][1,3]diazepine-3-carboxamide]: half-maximal degradation on BTK (DC50) was put at 2.44 nM. Besides, the IC50 in the experiment on HEK-293 cells was more than 10000 nM.

In the case of `Cc1cccc(NC(=O)c2cc(F)c(-c3nn4c(c3C(N)=O)Nc3ccc(N5CCN(CC6CCN(c7ccc(N8CCC(=O)NC8=O)cc7)CC6)CC5)cc3CC4)cc2C)n1` [Example B30, 7-(4-((1-(4-(2,4-dioxotetrahydropyrimidin-1(2H)-yl)phenyl)piperidin-4-yl)methyl)piperazin-1-yl)-2-(2-fluoro-5-methyl-4-((6-methylpyridin-2-yl)carbamoyl)phenyl)-9,10-dihydro-4H-benzo[d]pyrazolo[1,5-a][1,3]diazepine-3-carboxamide], on BTK, the DC50 was 2.53 nM. The IC50 in the experiment on HEK-293 cells is more than 10000 nM.
